Test system: zebrafish
Assay: Fatty liver inhibitory effect in tamoxifen-treated zebrafish juvenile fish (LipidGreen2 staining)
Format: in vivo
Method: In order to evaluate the inhibitory efficacy of the novel isoquinoline derivative of the present invention on fatty liver, an experiment was performed as follows using LipidGreen2 staining reagent capable of staining lipid droplets.
Particularly, the zebrafish used in this Experimental Example were juvenile fish 5 days after fertilization. Healthy juvenile fish were placed in a 24-well plate (10/well), and 1 ml of egg water was added to each well of the plate. As a negative control that could not regulate fatty liver, DMSO diluted at 0.4% was exposed to juvenile fish, and tamoxifen (Sigma-Aldrich, T5648) diluted at 5 μM was exposed to juvenile fish to control […] fatty liver. In order to investigate the fatty liver inhibitory efficacy of the compound of Example 1 of the present invention, the compound (0.5 μM, 1 μM and 5 μM) was mixed with 5 μM tamoxifen and exposed to juvenile fish (final volume of each well: 2 ml). The 24-well plate containing the compound was wrapped in foil to block light, and then incubated in a 28° C. incubator for 22 hours. The plate was washed with egg water 3 times for 5 minutes to remove the compound from each well. For fat-specific staining, LipidGreen2 diluted at 5 μM was exposed to juvenile fish for 30 minutes, and then washed 3 times with egg water for 5 minutes. To evaluate the fatty liver of zebrafish juvenile fish, the developing embryo was anesthetized with Tricaine (4 g/L), and then photographed on 3% methyl cellulose. As the equipment for photographing the developing embryo, a LEICA MZ10F fluorescence microscope, a LEICA DFC425 camera, and Leica Application Suite software (v4.5) were used. For the fluorescence wavelength, a GFP Plants filter set (Excitation 470/40 nm, Emission 525/50 nm) was used. To quantify the liver area and the degree of fat staining of juvenile fish on the image, the area and the fluorescence intensity of the liver part of each image were quantified using ImageJ 1.50i software (National Institutes of Health, USA) and converted into heatmap images.

With `[O-][S+](c1ccc(F)cc1)c1nccc2ccccc12` (stereo not drawn) [Example 1, 1-((4-Fluorophenyl)Sulfinyl)Isoquinoline] the “fatty liver (LipidGreen2 fat staining)” value (0.5, 1 and 5 μM mixed with 5 μM tamoxifen, 22 hours, juvenile fish 5 days after fertilization) was “restored to the normal level”, the liver area (compound mixed with 5 μM tamoxifen, 22 hours (FIG. 8 top)) was “maintained at the liver area level of normal juvenile fish” and the “fluorescence intensity of liver (LipidGreen2)” value (compound mixed with 5 μM tamoxifen, compared to tamoxifen group (FIG. 8 bottom)) was “decreased to the normal level”.

Reference: US11878013B2, “Isoquinoline derivative, preparing method thereof, and pharmaceutical composition for preventing or treating autophagy related diseases containing the same as an active ingredient” (Korea Research Institute of Chemical Technology, priority 2021, dated 2024)
